In the supplement of paper PMC10627819:

Columns and labels:
[1] = test system: B. subtilis 168; assay: fitness (endpoint OD595 vs no drug) (fraction); higher = more growth
Procedure, shortened: (§1)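 Each well of a 384-well plate received 30 µl of culture at OD595 0.01, or 55 µl for S. pneumoniae. TSB, LB Lennox or CY served as media at 37 °C. OD595 was taken every 30 min for 14 h and corrected by subtracting the first reading. Fitness is the optical density at stationary-phase entry divided by the robust mean of no-drug controls, capped at 1.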

[2] = test system: S. pneumoniae D39V; assay: as above
Procedure, shortened: as §1

[3] = test system: S. aureus Newman; assay: as above
Procedure, shortened: as §1

[4] = test system: B. subtilis 168; assay: Bliss interaction score (quartile over a dose matrix) (fitness difference); higher = more antagonism (negative = synergy)
Procedure, shortened: (§2)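 Fitness was OD595 at entry into stationary phase divided by the plate's robust no-drug mean and capped at 1; single-drug fitness was inferred from combination data. The Bliss score is observed minus expected (product) fitness, summarised by quartiles over technical, biological and donor/recipient replicates.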

[5] = test system: S. pneumoniae D39V; assay: as above
Procedure, shortened: as §2

[6] = test system: S. aureus Newman; assay: as above
Procedure, shortened: as §2

[7] = test system: S. aureus DSM 20231; assay: as above
Procedure, shortened: as §2

[8] = first compound 0.25 µg/mL, partner 1.25 µg/mL
[9] = first compound 0.25 µg/mL, partner 2.5 µg/mL
[10] = first compound 0.25 µg/mL, partner 5 µg/mL
[11] = first compound 0.5 µg/mL, partner 1.25 µg/mL
[12] = first compound 0.5 µg/mL, partner 2.5 µg/mL
[13] = first compound 0.5 µg/mL, partner 5 µg/mL
[14] = first compound 0.125 µg/mL, partner 0.65 µg/mL, one replicate
[15] = first compound 0.125 µg/mL, partner 1.3 µg/mL, one replicate
[16] = first compound 0.25 µg/mL, partner 0.65 µg/mL, one replicate
[17] = first compound 0.25 µg/mL, partner 1.3 µg/mL, one replicate
[18] = first compound 0.5 µg/mL, partner 0.65 µg/mL, one replicate
[19] = first compound 0.5 µg/mL, partner 1.3 µg/mL, one replicate
[20] = first compound 0.25 µg/mL, partner 0.039 µg/mL
[21] = first compound 0.25 µg/mL, partner 0.078 µg/mL
[22] = first compound 0.25 µg/mL, partner 0.125 µg/mL, one replicate
[23] = first compound 0.25 µg/mL, partner 0.156 µg/mL
[24] = first compound 0.25 µg/mL, partner 0.25 µg/mL, one replicate
[25] = first compound 0.25 µg/mL, partner 0.5 µg/mL, one replicate
[26] = first compound 0.5 µg/mL, partner 0.039 µg/mL
[27] = first compound 0.5 µg/mL, partner 0.078 µg/mL
[28] = first compound 0.5 µg/mL, partner 0.125 µg/mL, one replicate
[29] = first compound 0.5 µg/mL, partner 0.156 µg/mL
[30] = first compound 0.5 µg/mL, partner 0.25 µg/mL, one replicate
[31] = first compound 0.5 µg/mL, partner 0.5 µg/mL, one replicate
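For Bliss interaction score (quartile over a dose matrix) in this document: first quartile when negative (synergy) and third quartile when positive (antagonism).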

## CC1=C(C(=O)O)N2C(=O)[C@@H](NC(=O)[C@H](N)c3ccccc3)[C@H]2SC1 [Cephalexin] + CN1C2=CC=CC=C2N=C3C1=CC=CC3=O [Pyocyanin]
[1]; first compound 0.125 µg/mL, partner 1.25 µg/mL
  fitness: 0.923
[1]; first compound 0.125 µg/mL, partner 2.5 µg/mL
  fitness: 0.874
[1]; first compound 0.125 µg/mL, partner 5 µg/mL
  fitness: 0.719
[1]; [8]
  fitness: 0.916
[1]; [9]
  fitness: 0.836
[1]; [10]
  fitness: 0.686
[1]; [11]
  fitness: 0.881
[1]; [12]
  fitness: 0.823
[1]; [13]
  fitness: 0.679
[2]; first compound 0.125 µg/mL, partner 0.325 µg/mL, one replicate
  fitness: 0.976
[2]; [14]
  fitness: 0.933
[2]; [15]
  fitness: 0.762
[2]; first compound 0.25 µg/mL, partner 0.325 µg/mL, one replicate
  fitness: ≥ 1
[2]; [16]
  fitness: ≥ 1
[2]; [17]
  fitness: 0.805
[2]; first compound 0.5 µg/mL, partner 0.325 µg/mL, one replicate
  fitness: ≥ 1
[2]; [18]
  fitness: ≥ 1
[2]; [19]
  fitness: 0.822
[2]; first compound 1 µg/mL, partner 0.325 µg/mL, one replicate
  fitness: 0.817
[2]; first compound 1 µg/mL, partner 0.65 µg/mL, one replicate
  fitness: 0.891
[2]; first compound 2 µg/mL, partner 0.325 µg/mL, one replicate
  fitness: 0.328
[2]; first compound 2 µg/mL, partner 0.65 µg/mL, one replicate
  fitness: 0.65
[2]; first compound 4 µg/mL, partner 0.325 µg/mL, one replicate
  fitness: 0.0365
[2]; first compound 4 µg/mL, partner 0.65 µg/mL, one replicate
  fitness: 0.158
[3]; [8]
  fitness: 0.928
[3]; [9]
  fitness: 0.905
[3]; [10]
  fitness: 0.604
[3]; [11]
  fitness: 0.92
[3]; [12]
  fitness: 0.892
[3]; [13]
  fitness: 0.559
[3]; first compound 1 µg/mL, partner 1.25 µg/mL
  fitness: 0.823
[4]
  Bliss interaction score: -0.0454
[5]
  Bliss interaction score: 0.0919
[6]
  Bliss interaction score: 0.0862
[7]
  Bliss interaction score: 0.0604

## CC1=C(C(=O)O)N2C(=O)[C@@H](NC(=O)[C@H](N)c3ccccc3)[C@H]2SC1 [Cephalexin] + CN(C)c1cc(NC(=O)CNC(C)(C)C)c(O)c2c1C[C@H]1C[C@H]3[C@H](N(C)C)C(O)=C(C(N)=O)C(=O)[C@@]3(O)C(O)=C1C2=O [Tigecycline]
[1]; first compound 0.125 µg/mL, partner 0.039 µg/mL
  fitness: 0.958
[1]; first compound 0.125 µg/mL, partner 0.078 µg/mL
  fitness: 0.903
[1]; first compound 0.125 µg/mL, partner 0.156 µg/mL
  fitness: 0.951
[1]; [20]
  fitness: 0.946
[1]; [21]
  fitness: 0.902
[1]; [22]
  fitness: 0.94
[1]; [23]
  fitness: 0.892
[1]; [24]
  fitness: 0.952
[1]; [25]
  fitness: 0.958
[1]; [26]
  fitness: 0.942
[1]; [27]
  fitness: 0.942
[1]; [28]
  fitness: ≥ 1
[1]; [29]
  fitness: 0.943
[1]; [30]
  fitness: 0.976
[1]; [31]
  fitness: ≥ 1
[1]; first compound 1 µg/mL, partner 0.125 µg/mL, one replicate
  fitness: 0.995
[1]; first compound 1 µg/mL, partner 0.25 µg/mL, one replicate
  fitness: 0.975
[1]; first compound 1 µg/mL, partner 0.5 µg/mL, one replicate
  fitness: 0.916
[2]; [14]
  fitness: 0.933
[2]; [15]
  fitness: 0.964
[2]; first compound 0.125 µg/mL, partner 2.6 µg/mL, one replicate
  fitness: 0.888
[2]; [16]
  fitness: 0.959
[2]; [17]
  fitness: 0.974
[2]; first compound 0.25 µg/mL, partner 2.6 µg/mL, one replicate
  fitness: 0.915
[2]; [18]
  fitness: ≥ 1
[2]; [19]
  fitness: ≥ 1
[2]; first compound 0.5 µg/mL, partner 2.6 µg/mL, one replicate
  fitness: 0.978
[2]; first compound 1 µg/mL, partner 0.65 µg/mL
  fitness: 0.514
[2]; first compound 1 µg/mL, partner 1.3 µg/mL
  fitness: 0.616
[2]; first compound 1 µg/mL, partner 2.6 µg/mL
  fitness: 0.616
[2]; first compound 2 µg/mL, partner 0.65 µg/mL
  fitness: 0.0102
[2]; first compound 2 µg/mL, partner 1.3 µg/mL
  fitness: 0.0542
[2]; first compound 2 µg/mL, partner 2.6 µg/mL
  fitness: 0.0292
[2]; first compound 4 µg/mL, partner 0.65 µg/mL
  fitness: 0.0229
[2]; first compound 4 µg/mL, partner 1.3 µg/mL
  fitness: 0.0691
[2]; first compound 4 µg/mL, partner 2.6 µg/mL
  fitness: 0.0457
[3]; [20]
  fitness: 0.974
[3]; [21]
  fitness: 0.998
[3]; [23]
  fitness: 0.97
[3]; [26]
  fitness: 0.992
[3]; [27]
  fitness: ≥ 1
[3]; [29]
  fitness: 0.994
[3]; first compound 1 µg/mL, partner 0.039 µg/mL
  fitness: ≥ 1
[3]; first compound 1 µg/mL, partner 0.078 µg/mL
  fitness: ≥ 1
[3]; first compound 1 µg/mL, partner 0.156 µg/mL
  fitness: ≥ 1
[4]
  Bliss interaction score: -0.0606
[5]
  Bliss interaction score: -0.0787
[6]
  Bliss interaction score: 0.0193
[7]
  Bliss interaction score: 0.0805

## CC1=C(C(=O)O)N2C(=O)[C@@H](NC(=O)[C@H](N)c3ccccc3)[C@H]2SC1 [Cephalexin] + CN[C@H](CC(C)C)C(=O)N[C@H]1C(=O)N[C@@H](CC(N)=O)C(=O)N[C@H]2C(=O)N[C@H]3C(=O)N[C@H](C(=O)N[C@H](C(=O)O)c4cc(O)cc(O)c4-c4cc3ccc4O)[C@H](O)c3ccc(c(Cl)c3)Oc3cc2cc(c3O[C@@H]2O[C@H](CO)[C@@H](O)[C@H](O)[C@H]2O[C@H]2C[C@](C)(N)[C@H](O)[C@H](C)O2)Oc2ccc(cc2Cl)[C@H]1O [Vancomycin]
[2]; first compound 0.125 µg/mL, partner 0.125 µg/mL, one replicate
  fitness: 0.824
[2]; first compound 0.125 µg/mL, partner 0.25 µg/mL, one replicate
  fitness: 0.165
[2]; first compound 0.125 µg/mL, partner 0.5 µg/mL, one replicate
  fitness: 0.0735
[2]; [22]
  fitness: 0.936
[2]; [24]
  fitness: 0.383
[2]; [25]
  fitness: 0.0702
[2]; [28]
  fitness: ≥ 1
[2]; [30]
  fitness: 0.428
[2]; [31]
  fitness: 0.105
[2]; first compound 1 µg/mL, partner 0.125 µg/mL
  fitness: 0.282
[2]; first compound 2 µg/mL, partner 0.03125 µg/mL
  fitness: 0.0634
[2]; first compound 2 µg/mL, partner 0.0625 µg/mL
  fitness: 0.0312
[2]; first compound 2 µg/mL, partner 0.125 µg/mL
  fitness: 0.0467
[2]; first compound 4 µg/mL, partner 0.03125 µg/mL
  fitness: 0.0468
[2]; first compound 4 µg/mL, partner 0.0625 µg/mL
  fitness: 0.0227
[2]; first compound 4 µg/mL, partner 0.125 µg/mL
  fitness: 0.0467
[3]; first compound 0.25 µg/mL, partner 0.1875 µg/mL
  fitness: ≥ 1
[3]; first compound 0.25 µg/mL, partner 0.375 µg/mL
  fitness: 0.997
[3]; first compound 0.25 µg/mL, partner 0.75 µg/mL
  fitness: ≥ 1
[3]; first compound 0.5 µg/mL, partner 0.1875 µg/mL
  fitness: 0.997
[3]; first compound 0.5 µg/mL, partner 0.375 µg/mL
  fitness: ≥ 1
[3]; first compound 0.5 µg/mL, partner 0.75 µg/mL
  fitness: ≥ 1
[3]; first compound 1 µg/mL, partner 0.1875 µg/mL
  fitness: ≥ 1
[3]; first compound 1 µg/mL, partner 0.375 µg/mL
  fitness: ≥ 1
[3]; first compound 1 µg/mL, partner 0.75 µg/mL
  fitness: ≥ 1
[4]
  Bliss interaction score: -0.0548
[5]
  Bliss interaction score: -0.207
[6]
  Bliss interaction score: 0.0402
[7]
  Bliss interaction score: 0.0385
